Experimental data as given in US11447496B2, “Nitrogen-containing fused heterocyclic ring compound and application thereof” (GUANGZHOU CHINARAY OPTOELECTRONIC MATERIALS LTD., priority 2016, dated 2022).
Values after ≈ are worked out from the molar mass of the structure shown. Where two headings read alike, the source gives them in different places.

Test: Solubility in toluene, xylene and chloroform at 25° C.
Assay type: physicochemical
Conditions: organic solvent or mixture
Experimental: 1. A solubility (mg/mL) of compounds of Examples 1 to 11 and CBP, i.e., 4,4′-bis(9H-carbazol-9-yl)biphenyl, in toluene, xylene and chloroform was measured. The test temperature was 25° C.

[1] = chloroform, in chloroform, read-out: Solubility Chloroform
[2] = toluene, in toluene, read-out: Solubility Toluene
[3] = xylene, in xylene, read-out: Solubility Xylene
[4] = chloroform, in chloroform, read-out: solubility in chloroform (text summary of Table 1)
[5] = toluene, in toluene, read-out: solubility in toluene (text summary of Table 1)
[6] = xylene, in xylene, read-out: solubility in xylene (text summary of Table 1)

With `c1ccc2c(c1)c1ccccc1n2-c1ccc(-c2ccc(-n3c4ccccc4c4ccccc43)cc2)cc1` [CBP, 4,4′-bis(9H-carbazol-9-yl)biphenyl, reference compound] the solubility [1] was 185 mg/mL (≈ 382 mM), the solubility [2] was 130 mg/mL (≈ 268 mM) and the solubility [3] was 153 mg/mL (≈ 316 mM).
For `c1ccc(-c2nc(-c3cccc4c3-c3ccccc3C43c4ccccc4-c4ccccc43)nc(-n3c4ccccc4c4ccc5c6ccccc6n(-c6ccccc6)c5c43)n2)cc1` [Example 1], the solubility [1] was 410 mg/mL (≈ 511 mM), the solubility [4] was > 300 mg/mL and the solubility [2] was 250 mg/mL (≈ 312 mM). For the same molecule, the solubility [5] was > 200 mg/mL, the solubility [3] was 320 mg/mL (≈ 399 mM) and the solubility [6] was > 240 mg/mL.
With `c1ccc(-c2nc(-c3cccc4c3-c3ccccc3C43c4ccccc4-c4ccccc43)nc(-n3c4ccccc4c4cc5c6ccccc6n(-c6ccccc6)c5cc43)n2)cc1` [Example 2] the solubility [1] was 294 mg/mL (≈ 367 mM), the solubility [4] was > 300 mg/mL and the solubility [2] was 205 mg/mL (≈ 256 mM). For the same molecule, the solubility [5] was > 200 mg/mL, the solubility [3] was 256 mg/mL (≈ 319 mM) and the solubility [6] was > 240 mg/mL.
With `c1ccc(-c2nc(-c3cccc4c3-c3ccccc3C43c4ccccc4-c4ccccc43)nc(-n3c4ccccc4c4c5c6ccccc6n(-c6ccccc6)c5ccc43)n2)cc1` [Example 3] the solubility [1] was 285 mg/mL (≈ 355 mM), the solubility [4] was > 300 mg/mL and the solubility [2] was 200 mg/mL (≈ 249 mM). For the same molecule, the solubility [5] was > 200 mg/mL, the solubility [3] was 243 mg/mL (≈ 303 mM) and the solubility [6] was > 240 mg/mL.
With `c1ccc(-c2cc(-c3ccc4c(c3)-c3ccccc3C43c4ccccc4-c4ccccc43)nc(N3c4ccccc4Oc4ccc5c(c43)c3ccccc3n5-c3ccccc3)n2)cc1` [Example 4] the solubility [1] was 430 mg/mL (≈ 526 mM), the solubility [4] was > 300 mg/mL and the solubility [2] was 305 mg/mL (≈ 373 mM). For the same molecule, the solubility [5] was > 200 mg/mL, the solubility [3] was 362 mg/mL (≈ 443 mM) and the solubility [6] was > 240 mg/mL.
For `CC1(C)c2ccccc2N(c2nc(-c3ccccc3)nc(-c3ccc4c(c3)-c3ccccc3C43c4ccccc4-c4ccccc43)n2)c2cc3c(cc21)c1ccccc1n3-c1ccccc1` [Example 5], the solubility [1] was 445 mg/mL (≈ 527 mM), the solubility [4] was > 300 mg/mL and the solubility [2] was 330 mg/mL (≈ 391 mM). For the same molecule, the solubility [5] was > 200 mg/mL, the solubility [3] was 376 mg/mL (≈ 445 mM) and the solubility [6] was > 240 mg/mL.
For `CC1(C)c2ccccc2N(c2nc(-c3ccccc3)nc(-c3cccc4c3-c3ccccc3C43c4ccccc4-c4ccccc43)n2)c2ccc3c4ccccc4n(-c4ccccc4)c3c21` [Example 6], the solubility [1] was 460 mg/mL (≈ 545 mM), the solubility [4] was > 300 mg/mL and the solubility [2] was 350 mg/mL (≈ 415 mM). The solubility [5] was > 200 mg/mL, the solubility [3] was 392 mg/mL (≈ 464 mM) and the solubility [6] was > 240 mg/mL.
For `CC1(C)c2ccccc2N(c2ccccc2)c2cc3c(cc21)N(c1nc(-c2ccccc2)cc(-c2cccc4c2-c2ccccc2C42c4ccccc4-c4ccccc42)n1)c1ccccc1C3(C)C` [Example 7], the solubility [1] was 473 mg/mL (≈ 534 mM), the solubility [4] was > 300 mg/mL and the solubility [2] was 362 mg/mL (≈ 409 mM). For the same molecule, the solubility [5] was > 200 mg/mL, the solubility [3] was 405 mg/mL (≈ 458 mM) and the solubility [6] was > 240 mg/mL.
In the case of `CC1(C)c2ccccc2-c2ccc3c4ccccc4n(-c4nc(-c5ccccc5)nc(-c5cccc6c5-c5ccccc5C65c6ccccc6-c6ccccc65)n4)c3c21` [Example 8], the solubility [1] is reported as 510 mg/mL (≈ 677 mM), the solubility [4] is reported as > 300 mg/mL and the solubility [2] is reported as 400 mg/mL (≈ 531 mM). For the same molecule, the solubility [5] was > 200 mg/mL, the solubility [3] was 452 mg/mL (≈ 600 mM) and the solubility [6] was > 240 mg/mL.
In the case of `c1ccc(-c2nc(-c3ccc4c(c3)C3(c5ccccc5Sc5ccccc53)c3ccccc3-4)nc(-n3c4ccccc4c4ccc5c6ccccc6n(-c6ccccc6)c5c43)n2)cc1` [Example 9], the solubility [1] is reported as 434 mg/mL (≈ 520 mM), the solubility [4] is reported as > 300 mg/mL and the solubility [2] is reported as 285 mg/mL (≈ 342 mM). The solubility [5] was > 200 mg/mL, the solubility [3] was 354 mg/mL (≈ 424 mM) and the solubility [6] was > 240 mg/mL.
With `c1ccc(-c2nc(-c3ccc4c(c3)C3(c5ccccc5-4)c4ccccc4N(c4ccccc4)c4ccccc43)nc(-n3c4ccccc4c4cc5c6ccccc6n(-c6ccccc6)c5cc43)n2)cc1` [Example 10] the solubility [1] was 344 mg/mL (≈ 385 mM), the solubility [4] was > 300 mg/mL and the solubility [2] was 220 mg/mL (≈ 246 mM). For the same molecule, the solubility [5] was > 200 mg/mL, the solubility [3] was 284 mg/mL (≈ 318 mM) and the solubility [6] was > 240 mg/mL.
With `[2H]c1cc2c3ccccc3n(-c3nc(-c4ccccc4)cc(-c4ccc5c(c4)-c4ccccc4C54c5ccccc5-c5ccccc54)n3)c2c2c3ccccc3n(-c3ccccc3)c12` [Example 11] the solubility [1] was 374 mg/mL (≈ 466 mM), the solubility [4] was > 300 mg/mL and the solubility [2] was 268 mg/mL (≈ 334 mM). For the same molecule, the solubility [5] was > 200 mg/mL, the solubility [3] was 313 mg/mL (≈ 390 mM) and the solubility [6] was > 240 mg/mL.
